From patent US8293781B2, “Indole derivatives having cPLA2 inhibiting activity and applications and production methods of the same” (Daiichi Sankyo Company, Limited, priority 2007, dated 2012)
Where a name gives a salt, the structure may show the parent alone. Read-outs that look alike come from different tables or passages of the source.

How the values were obtained:
[1] = molecular target: T1, cPLA2 crudely purified from the cytoplasm fraction of U937 (Homo sapiens, UniProt P47712); experiment: Measurement of cPLA2 inhibitory activity (release of [14C]-arachidonic acid from phosphatidyl choline liposome); format: biochemical
T1 construct: cPLA2 crudely purified from the cytoplasm fraction of U937; endogenous in cells; host or cells: U937 cells (cytoplasm fraction, crude purification)
T1 sequence (P47712 1-749): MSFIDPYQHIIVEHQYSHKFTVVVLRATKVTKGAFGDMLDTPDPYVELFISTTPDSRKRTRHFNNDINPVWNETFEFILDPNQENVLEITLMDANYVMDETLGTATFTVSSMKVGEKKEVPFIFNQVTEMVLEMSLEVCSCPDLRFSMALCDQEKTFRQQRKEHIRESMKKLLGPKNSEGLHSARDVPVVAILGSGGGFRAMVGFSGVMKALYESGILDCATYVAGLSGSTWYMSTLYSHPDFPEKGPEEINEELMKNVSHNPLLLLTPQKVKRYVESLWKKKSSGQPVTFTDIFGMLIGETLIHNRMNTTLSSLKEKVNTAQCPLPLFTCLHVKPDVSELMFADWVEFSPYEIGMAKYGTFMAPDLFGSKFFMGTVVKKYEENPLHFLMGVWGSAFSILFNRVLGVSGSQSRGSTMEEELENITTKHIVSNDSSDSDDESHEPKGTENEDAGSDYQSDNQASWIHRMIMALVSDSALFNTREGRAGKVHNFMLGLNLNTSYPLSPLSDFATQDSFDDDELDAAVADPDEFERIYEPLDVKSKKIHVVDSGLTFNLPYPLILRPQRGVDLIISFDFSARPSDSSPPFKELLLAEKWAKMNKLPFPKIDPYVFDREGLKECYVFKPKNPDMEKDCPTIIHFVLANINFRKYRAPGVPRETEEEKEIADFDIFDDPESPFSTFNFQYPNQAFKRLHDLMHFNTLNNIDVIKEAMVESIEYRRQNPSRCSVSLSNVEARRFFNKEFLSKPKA
Procedure, shortened: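 The read-out is radioactivity from extracted [14C]-arachidonic acid, freed over 60 min at 37° C from liposomes of 14C-arachidonyl phosphatidylcholine (10 μM PC in the added solution). Buffer was 50 mM HEPES pH 7.5 with Ca2+, DTT, NaCl and BSA. IC50 was derived from inhibition relative to enzyme control minus no-enzyme control.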

[2] = system: PGE2 production in mouse peritoneal exudate cells; experiment: LPS-induced PGE2 production system using mouse peritoneal exudate cells; format: cell-based; details: LPS 10 μg/ml, 6 hours
Experimental: For evaluation of the PGE2 production inhibiting activity, the lipopolysaccharide (LPS)-induced PGE2 production system using mouse peritoneal exudate cells with reference to the method of Kim et al. (see Kim, Y K et al., Biol Pharm Bull 25: 472, 2002) was used. That is, 2 ml of thioglycolate solution (made by Sigma, Brewer's Thioglycorate medium) per mice were intraperitoneally administered to 8-week old female C3H/HeN mice (Charles River Japan). After 4 days, a phosphate buffer saline (PBS) 5 ml was used to wash the abdominal cavity and the infiltrating cells were recovered. The recovered cells were suspended in a predetermined concentration in an RPMI1640 medium (Nacalai Tesque) containing 10% bovine fetal serum (BioWhittaker) and 10 μg/ml gentamycin (Invitrogen).
The infiltrating cell suspension 100 μl containing 2×10^5 cells per well was inoculated in a 96-well culture plate, then the test compound solution or solvent 50 μl was added. Under conditions of 5% CO2 and 37° C., this was precultured for 15 minutes, then LPS (made by Sigma: L-4524) solution 50 μl (final concentration of LPS of 10 μg/ml) was added, and the mixture was cultured for a further 6 hours. After the end of the culture, the culture supernatant was recovered and the PGE2 concentration in the supernatant was measured using an EIA kit (made by Amersham). Based on the measurement value, the test compound concentration suppressing 50% of the PGE2 production at the time of non-addition of a compound (IC50 value) was calculated.

[3] = cPLA2 from U937 cytoplasm fraction, [14C]arachidonyl-phosphatidyl choline liposome, 37° C., 60 minutes, read-out: cPLA2 inhibitory activity, 50% inhibiting concentration IC50

Row | Compound | IC50 [1, 3] | IC50 [2] | IC50 [1]
1 | CCOc1ccc(-n2cc(CCc3ccccc3)c3cc(CCC(=O)NC#N)ccc32)cc1 [Example 115, N-cyano-3-[1-(4-ethoxyphenyl)-3-(2-phenylethyl)-1H-indol-5-yl]propanamide] | 61 nM | 300 nM | –
2 | O=C(O)CCc1ccc2c(c1)c(CCc1ccccc1)cn2-c1cccc(O)c1 [Example 157, 3-[1-(3-hydroxyphenyl)-3-(2-phenylethyl)-1H-indol-5-yl]propanoic acid] | 186 nM | 2250 nM | –
3 | O=C(O)CCc1ccc2c(c1)c(CCc1ccccc1)cn2-c1cccnc1 [Example 128, 3-[3-(2-phenylethyl)-1-(3-pyridinyl)-1H-indol-5-yl]propanoic acid hydrochloride] | 250 nM | 6430 nM | –
4 | CCOc1ccc(-n2cc(CCc3ccccc3)c3cc(CCC(=O)C(F)(F)F)ccc32)cc1 [Example 114, 4-[1-(4-ethoxyphenyl)-3-(2-phenylethyl)-1H-indol-5-yl]-1,1,1-trifluorobutan-2-one] | 740 nM | 2220 nM | –
5 | CN(C)c1ccc(-n2cc(CCc3ccccc3)c3cc(CCC(=O)O)ccc32)nc1 [Example 138, 3-{1-[5-(dimethylamino)-2-pyridinyl]-3-(2-phenylethyl)-1H-indol-5-yl}propanoic acid hydrochloride] | 34 nM | 580 nM | –
6 | O=C(O)CCc1ccc2c(c1)c(CCc1ccccc1)cn2-c1ccccc1 [Example 17, 3-[1-phenyl-3-(2-phenylethyl)-1H-indol-5-yl]propanoic acid 2-amino-2-(hydroxymethyl)propane-1,3-diol salt (1:1)] | 38 nM | 1320 nM | –
7 | O=C(O)CCc1ccc2c(c1)c(CCc1ccccc1)cn2-c1ccc(C(=O)O)cc1 [Example 79, 4-[5-(2-carboxyethyl)-3-(2-phenylethyl)-1H-indol-1-yl]benzoic acid] | 180 nM | – | –
8 | O=C(O)CCc1ccc2c(c1)c(C(=O)Cc1ccccc1)cn2-c1ccccc1 [Example 12, 3-[1-phenyl-3-(phenylacetyl)-1H-indol-5-yl]propanoic acid] | – | – | 261 nM
9 | O=C(O)CCc1ccc2c(c1)c(CCc1ccccc1)cn2-c1cccc(OCc2ccccc2)c1 [Example 155, 3-{1-[3-(benzyloxy)phenyl]-3-(2-phenylethyl)-1H-indol-5-yl}propanoic acid 2-amino-2-(hydroxymethyl)propane-1,3-diol salt (1:1)] | 208 nM | – | –
10 | O=C(O)CCc1ccc2c(c1)c(CCc1ccccc1)cn2-c1ccc(OCCCc2ccncc2)cc1 [Example 260, 3-{3-(2-phenylethyl)-1-[4-(3-pyridin-4-ylpropoxy)phenyl]-1H-indol-5-yl}propanoic acid] | 8 nM | – | –
11 | CC(C)Oc1ccc(-n2cc(CCc3ccccc3)c3cc(CCC(=O)O)ccc32)cc1 [Example 121, 3-[1-(4-isopropoxyphenyl)-3-(2-phenylethyl)-1H-indol-5-yl]propanoic acid] | 7 nM | – | –
12 | O=C(O)CCc1ccc2c(c1)c(CCc1ccccc1)cn2-c1ccc(OCc2ccccc2)cc1 [Example 124, 3-{1-[4-(benzyloxy)phenyl]-3-(2-phenylethyl)-1H-indol-5-yl}propanoic acid 2-amino-2-(hydroxymethyl)propane-1,3-diol salt (1:1)] | 8 nM | 130 nM | –
13 | O=C(O)/C=C/c1ccc2c(c1)c(C(=O)Cc1ccccc1)cn2-c1ccccc1 [Example 11, (2E)-3-[1-phenyl-3-(phenylacetyl)-1H-indol-5-yl]-2-propenoic acid] | – | – | 1910 nM
14 | O=C(O)CCc1ccc2c(c1)c(CCCc1ccccc1)cn2-c1ccc(OCc2ccccc2)cc1 [Example 339, 3-{1-[4-(benzyloxy)phenyl]-3-(3-phenylpropyl)-1H-indol-5-yl}propanoic acid] | 460 nM | – | –
15 | O=C(O)CCc1ccc2c(c1)c(CCc1ccccc1)cn2-c1ccccc1O [Example 147, 3-[1-(2-hydroxyphenyl)-3-(2-phenylethyl)-1H-indol-5-yl]propanoic acid] | 779 nM | 1240 nM | –
16 | CN(C)c1ccc(-n2cc(CCc3ccccc3)c3cc(CCC(=O)O)ccc32)cc1 [Example 85, 3-{1-[4-(dimethylamino)phenyl]-3-(2-phenylethyl)-1H-indol-5-yl}propanoic acid] | 77 nM | – | –
17 | Cc1c(CCc2ccccc2)c2cc(CCC(=O)O)ccc2n1-c1ccccc1 [Example 48, 3-[2-methyl-1-phenyl-3-(2-phenylethyl)-1H-indol-5-yl]propanoic acid] | 126 nM | 2490 nM | –
18 | O=C(O)CCc1ccc2c(c1)c(CCc1ccccc1)cn2-c1ccc(OCc2cccnc2)cc1 [Example 248, 3-{3-(2-phenylethyl)-1-[4-(pyridin-3-ylmethoxy)phenyl]-1H-indol-5-yl}propanoic acid] | 7 nM | – | –
19 | O=C(O)CCc1ccc2c(c1)c(C(=O)Cc1ccc(F)cc1)cn2-c1ccccc1 [Example 61, 3-{3-[(4-fluorophenyl)acetyl]-1-phenyl-1H-indol-5-yl}propanoic acid] | – | – | 653 nM
20 | O=C(O)CCc1ccc2c(c1)c(CCc1ccc(Cl)cc1)cn2-c1ccccc1 [Example 58, 3-{3-[2-(4-chlorophenyl)ethyl]-1-phenyl-1H-indol-5-yl}propanoic acid 2-amino-2-(hydroxymethyl)propane-1,3-diol salt (1:1)] | 1160 nM | – | –
21 | CCN(CC)c1ccc(-n2cc(CCc3ccccc3)c3cc(CCC(=O)O)ccc32)cc1 [Example 88, 3-{1-[4-(diethylamino)phenyl]-3-(2-phenylethyl)-1H-indol-5-yl}propanoic acid] | 142 nM | – | –
